The values below come from patent US6652633B2, “Fire retardant” (Arch Wood Protection, Inc., priority 2001, dated 2003).

The series in a line: potentiometric titration against 0.1 N NaOH with mannitol complexation (equivalence points). To be noted: aqueous GUP/boric acid solution complexed with mannitol; potentiometric titration of GUP/boric acid solutions, samples complexed with mannitol; read-out: pKa (equivalence point). Type of series: physicochemical. The protocol:
The mixture was heated to approximately 48° C. to dissolve all of the solids, and a sample for analysis taken. The temperature of the solution was then raised and maintained between 70° C. and 90° C. for 3.5 hours. Samples of the solution were analyzed by potentiometric titration every hour, and at the end of the 3.5 hour reaction period.
The samples were titrated against approximately 0.1 N NaOH (standardized against a potassium hydrogen phthalate standard from NIST). Because the pKa of GUP is very close to that for boric acid, the samples were each complexed with 10 g of mannitol to form a boric acid ester having a lower pKa that is more easily distinguishable from that of GUP. The results are given in Table 1,below, and plotted on FIG. 1.
Approximately 0.1000 g of solid product was combined with about 10 g mannitol and titrated against 0.1 N NaOH. The mannitol was added to react with the boric acid to for a borate ester, which has a much lower equivalence point than GUP. […] The loss in yield was attributable to the short reaction time allowed in this example. A kinetic analysis was subsequently undertaken, and it was determined that an increase in GUP yield could be obtained by increasing the reaction time, as indicated in Table 4 below.

As usually defined, the pKa is the negative logarithm of the acid dissociation constant.

As to `N=C(N)NC(N)=O` [GUP, guanylurea phosphate], the pKa is 7.25.
